Results taken from the NIST ThermoML archive (doi:10.1016/j.fluid.2018.09.017).
Numbers after ± are expanded uncertainties.

Experiment: molar heat capacity at constant pressure
Conditions: Liquid, Flow calorimetry

CCCCCCCCCCCC(=O)OCC [ethyl dodecanoate]
Conditions	molar heat capacity at constant pressure [J/K/mol]
313.26 K, 5030 kPa	472 ± 14
313.26 K, 9990 kPa	471 ± 14
313.27 K, 140 kPa	474 ± 14
313.27 K, 14970 kPa	470 ± 14
313.28 K, 25150 kPa	469 ± 14
313.29 K, 20040 kPa	470 ± 14
323.22 K, 160 kPa	480 ± 14
323.22 K, 20140 kPa	475 ± 14
323.22 K, 25150 kPa	474 ± 14
323.23 K, 4980 kPa	478 ± 14
323.23 K, 10110 kPa	477 ± 14
323.23 K, 14920 kPa	476 ± 14
333.2 K, 140 kPa	487 ± 15
333.2 K, 4920 kPa	485 ± 15
333.2 K, 10150 kPa	483 ± 15
333.2 K, 15060 kPa	482 ± 14
333.2 K, 19970 kPa	481 ± 14
333.21 K, 25020 kPa	480 ± 14
343.15 K, 140 kPa	493 ± 15
343.16 K, 5160 kPa	491 ± 15
343.16 K, 10270 kPa	489 ± 15
343.19 K, 15130 kPa	488 ± 15
343.19 K, 20220 kPa	487 ± 15
343.21 K, 25180 kPa	486 ± 15
353.14 K, 180 kPa	501 ± 15
353.14 K, 4970 kPa	498 ± 15
353.17 K, 9950 kPa	496 ± 15
353.17 K, 14920 kPa	494 ± 15
353.17 K, 20020 kPa	492 ± 15
353.18 K, 24950 kPa	491 ± 15
363.17 K, 110 kPa	508 ± 15
363.18 K, 5010 kPa	507 ± 15
363.29 K, 10190 kPa	505 ± 15
363.29 K, 15070 kPa	503 ± 15
363.29 K, 20150 kPa	501 ± 15
363.29 K, 25100 kPa	500 ± 15
373.19 K, 110 kPa	516 ± 16
373.2 K, 4900 kPa	514 ± 15
373.21 K, 10170 kPa	512 ± 15
373.21 K, 15020 kPa	511 ± 15
373.22 K, 19850 kPa	509 ± 15
373.25 K, 24930 kPa	508 ± 15
383.23 K, 100 kPa	523 ± 16
383.23 K, 5000 kPa	521 ± 16
383.23 K, 10040 kPa	520 ± 16
383.24 K, 15080 kPa	518 ± 16
383.25 K, 19940 kPa	517 ± 16
383.28 K, 25150 kPa	515 ± 15
393.2 K, 4910 kPa	530 ± 16
393.22 K, 110 kPa	532 ± 16
393.22 K, 10100 kPa	530 ± 16
393.23 K, 19780 kPa	528 ± 16
393.27 K, 15020 kPa	529 ± 16
393.27 K, 24830 kPa	527 ± 16

CCCCCCCCC(=O)OCC [ethyl nonanoate]
Conditions	molar heat capacity at constant pressure [J/K/mol]
303.21 K, 15150 kPa	369 ± 12
303.22 K, 9980 kPa	370 ± 12
303.24 K, 20090 kPa	369 ± 12
303.25 K, 5000 kPa	371 ± 12
303.27 K, 24930 kPa	368 ± 12
303.31 K, 110 kPa	371 ± 12
313.21 K, 19900 kPa	375 ± 12
313.22 K, 14910 kPa	376 ± 12
313.23 K, 170 kPa	377 ± 12
313.24 K, 9850 kPa	376 ± 12
313.24 K, 24930 kPa	374 ± 12
313.26 K, 5090 kPa	377 ± 12
323.19 K, 4970 kPa	385 ± 12
323.22 K, 110 kPa	386 ± 12
323.22 K, 24920 kPa	382 ± 12
323.23 K, 10020 kPa	384 ± 12
323.24 K, 20090 kPa	382 ± 12
323.26 K, 15190 kPa	383 ± 12
333.16 K, 4930 kPa	393 ± 13
333.18 K, 140 kPa	394 ± 13
333.18 K, 9950 kPa	393 ± 13
333.19 K, 20150 kPa	392 ± 13
333.21 K, 15110 kPa	393 ± 13
333.23 K, 25020 kPa	392 ± 13
343.19 K, 5070 kPa	400 ± 13
343.19 K, 9940 kPa	400 ± 13
343.19 K, 14950 kPa	400 ± 13
343.2 K, 110 kPa	401 ± 13
343.21 K, 19870 kPa	399 ± 13
343.22 K, 25210 kPa	399 ± 13
353.11 K, 4910 kPa	407 ± 13
353.14 K, 160 kPa	407 ± 13
353.14 K, 10160 kPa	406 ± 13
353.15 K, 14930 kPa	406 ± 13
353.2 K, 20210 kPa	405 ± 13
353.23 K, 25190 kPa	405 ± 13
363.12 K, 110 kPa	414 ± 13
363.14 K, 5090 kPa	413 ± 13
363.16 K, 15060 kPa	412 ± 13
363.17 K, 10020 kPa	413 ± 13
363.17 K, 20130 kPa	411 ± 13
363.19 K, 25160 kPa	410 ± 13
373.12 K, 100 kPa	420 ± 13
373.12 K, 4830 kPa	420 ± 13
373.13 K, 10020 kPa	419 ± 13
373.13 K, 15150 kPa	418 ± 13
373.14 K, 20170 kPa	418 ± 13
373.14 K, 24950 kPa	417 ± 13
383.18 K, 160 kPa	427 ± 14
383.2 K, 4950 kPa	426 ± 14
383.2 K, 10190 kPa	425 ± 14
383.2 K, 15000 kPa	425 ± 14
383.22 K, 20130 kPa	424 ± 14
383.22 K, 24950 kPa	424 ± 14
393.18 K, 110 kPa	434 ± 14
393.18 K, 5090 kPa	433 ± 14
393.18 K, 10020 kPa	433 ± 14
393.19 K, 15150 kPa	433 ± 14
393.2 K, 20190 kPa	432 ± 14
393.24 K, 24960 kPa	432 ± 14
